Reference: patent US10065990B2, “Cyclic peptide compound, and preparation method, pharmaceutical composition and use thereof” (HANGZHOU GUANYU BIO-MEDICAL CO., LTD, priority 2013, dated 2018)
Read-outs that look alike come from different tables or passages of the source.

Key:
[1] = tested on: HT1080 (human fibrosarcoma cells); test: MTT cancer cell growth inhibition; format: cell-based; conditions: Homo sapiens, HT-1080, 72 h, MTT, 72 hours incubation, read-out: GI50 HT1
Excerpt: (§1) MTT assay principle is yellow MTT can penetrate membrane into the cell, succinic dehydrogenase of the mitochondria in living cells can make exogenous MTT reduction of insoluble in water of blue-violet acicular formazan for crystallization and deposition in the cell, crystallization can be dissolved dimethyl sulfoxide (DMSO) solution, detected its absorbance at 490 nm/570 nm wavelength by enzyme-linked immunosorbent assay, which can reflect the number of cells.
(§2) Using DMEM+10% FBS culture medium or using 1640+10% FBS culture, respectively.
(§3) a) Cells were seeded in 96-well plates with the inoculation of 1500/well, 190 μl/hole, 37° C., 5% of CO2 incubator overnight;
(§4) b) The next day each well was added 10 μl of different drugs. The final concentration of drug was 10^−5˜10^−10M, three parallel holes; 37° C., 5% CO2 culture incubator for 72 hours incubation;
(§5) c) Per well was added 20 μl 5 mg/ml of MTT, 37° C., 5% CO2 culture incubator for 4 hours incubation;
(§6) d) The supernatant was discarded. Each well was added 100 μl of DMSO and oscillation;
(§7) e) 570 nm readings. Calculate cell viability. GI50 calculation based on the results.

[2] = tested on: MOLT-4 (human acute lymphoblastic leukemia cells); test: MTT cancer cell growth inhibition; format: cell-based; conditions: Homo sapiens, MOLT-4, 72 h, MTT, 72 hours incubation, read-out: GI50 Mol
Excerpt: as §1, §2, §3, §4, §5, §6, §7

[3] = tested on: Huh-7 (human hepatoma cells); test: MTT cancer cell growth inhibition; format: cell-based; conditions: Homo sapiens, Huh-7, 72 h, MTT, 72 hours incubation, Huh-7 cells; read-out: GI50 Huh-7
Excerpt: as §1, §2, §3, §4, §5, §6, §7

[4] = tested on: H1975 (non-small cell lung adenocarcinoma); test: MTT cancer cell growth inhibition; format: cell-based; conditions: Homo sapiens, NCI-H1975, 72 h, MTT, 72 hours incubation, H1975 cells; read-out: GI50 H1975
Excerpt: as §1, §2, §3, §4, §5, §6, §7

[5] = tested on: PANC-1 (Pac-1, human pancreatic cancer cells); test: MTT cancer cell growth inhibition; format: cell-based; conditions: Homo sapiens, PANC-1, 72 h, MTT, 72 hours incubation, read-out: GI50 PAN
Excerpt: as §1, §2, §3, §4, §5, §6, §7

[6] = tested on: N-87 (human gastric cancer cells); test: MTT cancer cell growth inhibition; format: cell-based; conditions: Homo sapiens, 72 h, MTT, 72 hours incubation, N-87 cells; read-out: GI50 N-87
Excerpt: as §1, §2, §3, §4, §5, §6, §7

[7] = tested on: Hela (human cervical cancer cells); test: MTT cancer cell growth inhibition; format: cell-based; conditions: Homo sapiens, HeLa, 72 h, MTT, 72 hours incubation, read-out: GI50 Hela
Excerpt: as §1, §2, §3, §4, §5, §6, §7

[8] = tested on: lncap (prostate cancer cells); test: MTT cancer cell growth inhibition; format: cell-based; conditions: Homo sapiens, LNCaP, 72 h, MTT, 72 hours incubation, read-out: GI50 lnca
Excerpt: as §1, §2, §3, §4, §5, §6, §7

[9] = tested on: K562 (human leukemia cells); test: MTT cancer cell growth inhibition; format: cell-based; conditions: Homo sapiens, K562, 72 h, MTT, 72 hours incubation, K562 cells; read-out: GI50 K562
Excerpt: as §1, §2, §3, §4, §5, §6, §7

[10] = tested on: U937 (human leukemia cells); test: MTT cancer cell growth inhibition; format: cell-based; conditions: Homo sapiens, U-937, 72 h, MTT, 72 hours incubation, read-out: GI50 U93
Excerpt: as §1, §2, §3, §4, §5, §6, §7

[11] = tested on: DU145 (human prostate cancer cells); test: MTT cancer cell growth inhibition; format: cell-based; conditions: Homo sapiens, DU-145, 72 h, MTT, 72 hours incubation, read-out: GI50 Du1
Excerpt: as §1, §2, §3, §4, §5, §6, §7

[12] = tested on: KBM-5 (human chronic myelogenous leukemia); test: MTT cancer cell growth inhibition; format: cell-based; conditions: Homo sapiens, KBM5, 72 h, MTT, 72 hours incubation, KBM-5 cells; read-out: GI50 KBM-5
Excerpt: as §1, §2, §3, §4, §5, §6, §7

[13] = tested on: Bel-7402 (human hepatoma cells); test: MTT cancer cell growth inhibition; format: cell-based; conditions: Homo sapiens, Bel-7402, 72 h, MTT, 72 hours incubation, Bel-7402 cells; read-out: GI50 Bel-7402
Excerpt: as §1, §2, §3, §4, §5, §6, §7

[14] = tested on: SGC-7901 (human gastric cancer cells); test: MTT cancer cell growth inhibition; format: cell-based; conditions: Homo sapiens, SGC-7901, 72 h, MTT, 72 hours incubation, SGC-7901 cells; read-out: GI50 SGC-7901
Excerpt: as §1, §2, §3, §4, §5, §6, §7

[15] = tested on: MDA-MB-231 (breast cancer cells); test: MTT cancer cell growth inhibition; format: cell-based; conditions: Homo sapiens, MDA-MB-231, 72 h, read-out: GI50 MDA-MB-231, MTT, 72 hours incubation, MDA-MB-231 cells
Excerpt: as §1, §2, §3, §4, §5, §6, §7

[16] = tested on: MCF-7 (human breast cancer cells); test: MTT cancer cell growth inhibition; format: cell-based; conditions: Homo sapiens, MCF7, 72 h, 72 hours incubation, read-out: GI50 MCF
Excerpt: as §1, §2, §3, §4, §5, §6, §7

[17] = tested on: HCC827 (human non-small cell lung cancer cells); test: MTT cancer cell growth inhibition; format: cell-based; conditions: Homo sapiens, HCC827, 72 h, MTT, 72 hours incubation, HCC827 cells; read-out: GI50 HCC827
Excerpt: as §1, §2, §3, §4, §5, §6, §7

[18] = tested on: KBM5-T315I (human chronic myelogenous leukemia); test: MTT cancer cell growth inhibition; format: cell-based; conditions: Homo sapiens, 72 h, MTT, 72 hours incubation, KBM5-T315I cells; read-out: GI50 KBM5-T315I
Excerpt: as §1, §2, §3, §4, §5, §6, §7

[19] = tested on: A549 (human lung cancer cells); test: MTT cancer cell growth inhibition; format: cell-based; conditions: Homo sapiens, A549, 72 h, MTT, 72 hours incubation, read-out: GI50 A54
Excerpt: as §1, §2, §3, §4, §5, §6, §7

[20] = tested on: BGC-823 (human gastric cancer cells); test: MTT cancer cell growth inhibition; format: cell-based; conditions: Homo sapiens, BGC-823, 72 h, MTT, 72 hours incubation, read-out: GI50 BG
Excerpt: as §1, §2, §3, §4, §5, §6, §7

HDAC7 = biological target: T1, HDAC7 (Homo sapiens, UniProt Q8WUI4); test: HDAC biochemical activity measurement (fluorescent substrate deacetylation);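 also: fluorogenic deacetylation assay using acetyl-lysine substrate at 20 µM, enzyme and compound incubated 30 min at 37 °C, then developer added, fluorescence read at 360/460 nm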; conditions: HDAC7; 37° C. 30 minutes
T1 sequence (Q8WUI4 1-952): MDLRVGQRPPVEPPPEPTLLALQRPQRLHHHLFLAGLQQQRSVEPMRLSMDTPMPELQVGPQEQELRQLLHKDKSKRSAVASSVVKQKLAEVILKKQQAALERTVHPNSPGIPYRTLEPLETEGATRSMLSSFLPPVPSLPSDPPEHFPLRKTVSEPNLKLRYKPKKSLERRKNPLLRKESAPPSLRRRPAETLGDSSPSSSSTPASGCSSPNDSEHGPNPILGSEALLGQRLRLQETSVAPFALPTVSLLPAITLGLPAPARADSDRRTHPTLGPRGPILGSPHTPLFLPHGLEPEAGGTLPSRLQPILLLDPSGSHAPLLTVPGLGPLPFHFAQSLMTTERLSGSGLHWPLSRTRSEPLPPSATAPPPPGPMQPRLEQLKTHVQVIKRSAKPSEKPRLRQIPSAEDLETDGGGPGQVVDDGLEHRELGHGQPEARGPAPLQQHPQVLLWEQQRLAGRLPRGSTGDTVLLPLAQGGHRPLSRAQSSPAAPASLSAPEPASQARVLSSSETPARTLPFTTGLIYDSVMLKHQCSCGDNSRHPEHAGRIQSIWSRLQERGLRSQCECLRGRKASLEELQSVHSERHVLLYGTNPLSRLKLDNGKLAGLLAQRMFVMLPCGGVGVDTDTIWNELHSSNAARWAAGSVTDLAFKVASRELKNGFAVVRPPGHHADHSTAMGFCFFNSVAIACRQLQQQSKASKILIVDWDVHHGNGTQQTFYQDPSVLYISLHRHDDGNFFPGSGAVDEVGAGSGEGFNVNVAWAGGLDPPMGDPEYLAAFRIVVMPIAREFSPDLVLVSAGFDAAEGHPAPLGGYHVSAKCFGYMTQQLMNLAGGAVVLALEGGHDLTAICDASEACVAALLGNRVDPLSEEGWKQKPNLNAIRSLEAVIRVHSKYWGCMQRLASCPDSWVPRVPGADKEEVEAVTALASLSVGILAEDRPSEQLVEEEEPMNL

GI50 [3] [nM]	GI50 [4] [nM]	GI50 [6] [nM]	GI50 [9] [nM]	GI50 [12] [nM]	GI50 [13] [nM]	GI50 [14] [nM]	GI50 [15] [nM]	GI50 [17] [nM]	GI50 [18] [nM]	IC50 HDAC7 (HDAC7)	GI50 ([1]; HT1080 cells) [nM]	GI50 ([2]; MOLT-4 cells) [nM]	GI50 ([5]; PANC-1 cells) [nM]	GI50 ([7]; Hela cells) [nM]	GI50 ([8]; lncap cells) [nM]	GI50 ([10]; U937 cells) [nM]	GI50 ([11]; DU145 cells) [nM]	GI50 ([16]; MCF-7 cells) [nM]	GI50 ([19]; A549 cells) [nM]	SMILES	other results
35	43	52	41	81	74	36	35	74	29	no activity										C/C=C1\NC(=O)c2nc(ccc2F)CNC(=O)C[C@@H](/C=C/CCSC(=O)CCCCCCC)OC(=O)[C@H](Cc2ccccc2)NC1=O [Example 69]	GI50 [1]: 70 nM; GI50 [2]: 30 nM; GI50 [5]: 70 nM; GI50 [7]: 80 nM; GI50 [8]: 30 nM; GI50 [10]: 40 nM; GI50 [11]: 40 nM; GI50 [16]: 20 nM; GI50 [19]: 30 nM; GI50 [20]: 50 nM
33	46	19	48	38	27	57	79	55	21	no activity	30	10	50	20	50	40	30	40	30	CSc1ccc2nc1C(=O)NC(=C(C)C)C(=O)N[C@@H](C(C)C)C(=O)O[C@H](/C=C/CCSC(C)=O)CC(=O)NC2 [Compound 207]	GI50 ([20]; BGC-823 cells): 30 nM

Further lines, the molecule ahead of its results:

SMILES	GI50 [3] [nM]	GI50 [4] [nM]	GI50 [6] [nM]	GI50 [9] [nM]	GI50 [12] [nM]	GI50 [13] [nM]	GI50 [14] [nM]	GI50 [15] [nM]	GI50 [17] [nM]	GI50 [18] [nM]	IC50 HDAC7 (HDAC7)	GI50 ([1]; HT1080 cells) [nM]	GI50 ([2]; MOLT-4 cells) [nM]	GI50 ([5]; PANC-1 cells) [nM]	GI50 ([7]; Hela cells) [nM]	GI50 ([8]; lncap cells) [nM]	GI50 ([10]; U937 cells) [nM]	GI50 ([11]; DU145 cells) [nM]	GI50 ([16]; MCF-7 cells) [nM]	GI50 ([19]; A549 cells) [nM]	other results
C/C=C1\NC(=O)c2nc(ccc2SC)CNC(=O)C[C@@H](/C=C/CCSC(=O)CC)OC(=O)[C@H](C(C)C)NC1=O [Compound 162]	81	49	18	73	42	35	78	79	51	16	no activity	70	70	70	80	50	50	10	40	90	GI50 ([20]; BGC-823 cells): 50 nM
C/C=C1\NC(=O)c2ccc(SC)c(n2)CNC(=O)C[C@@H](/C=C/CCSC(C)=O)OC(=O)[C@H](Cc2cccc3ccccc23)NC1=O [Compound 200]	26	59	39	107	28	26	58	46	45	34	no activity	40	40	70	30	80	50	60	30	20	GI50 ([20]; BGC-823 cells): 80 nM
C/C=C1\NC(=O)c2nc(ccc2F)CNC(=O)C[C@@H](/C=C/CCS)OC(=O)[C@H](CCCCNC(=O)OCC2c3ccccc3-c3ccccc32)NC1=O [Compound 120]	71	35	53	23	45	66	84	16	55	33	no activity										GI50 [1]: 10 nM; GI50 [2]: 20 nM; GI50 [5]: 100 nM; GI50 [7]: 30 nM; GI50 [8]: 30 nM; GI50 [10]: 10 nM; GI50 [11]: 50 nM; GI50 [16]: 100 nM; GI50 [19]: 50 nM; GI50 [20]: 30 nM
C/C=C1\NC(=O)c2nc(ccc2SC)CNC(=O)C[C@@H](/C=C/CCSC(C)=O)OC(=O)[C@H](CC)NC1=O [Compound 177]	35	83	37	29	80	84	39	49	33	13	no activity	30	60	20	100	10	60	60	50	20	GI50 ([20]; BGC-823 cells): 40 nM
